Key:
Experiment in all cases: KinaseProfiler Assay
MAPKAP-K2(h) = MAPKAP-K2(h) (Homo sapiens, UniProt P49137)
ROCK-I(h) = ROCK-I(h) (Homo sapiens, UniProt Q13464)
CK1δ(h) = CK1δ(h) (Homo sapiens, UniProt P48730)
CaMKIIγ(h) = CaMKIIγ(h) (Homo sapiens, UniProt Q13555)
MKK7β(h) = target: T1, MKK7β(h) (Homo sapiens, UniProt O14733)
T1 sequence (O14733 1-419): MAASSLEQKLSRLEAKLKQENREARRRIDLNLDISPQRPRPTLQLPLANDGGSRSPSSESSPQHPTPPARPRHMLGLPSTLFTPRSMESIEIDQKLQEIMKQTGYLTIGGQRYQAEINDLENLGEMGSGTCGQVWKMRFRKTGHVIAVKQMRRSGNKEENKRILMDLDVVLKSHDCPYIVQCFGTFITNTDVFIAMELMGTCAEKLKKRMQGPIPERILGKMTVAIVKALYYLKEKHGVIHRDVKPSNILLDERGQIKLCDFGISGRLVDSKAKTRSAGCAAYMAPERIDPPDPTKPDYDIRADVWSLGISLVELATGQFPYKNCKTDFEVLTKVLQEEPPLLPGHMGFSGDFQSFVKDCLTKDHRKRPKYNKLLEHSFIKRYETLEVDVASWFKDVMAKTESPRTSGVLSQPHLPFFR

CK1(y) = target: CK1(y)
EphA8(h) = target: T2, EphA8(h) (Homo sapiens, UniProt P29322)
T2 sequence (P29322 28-1005): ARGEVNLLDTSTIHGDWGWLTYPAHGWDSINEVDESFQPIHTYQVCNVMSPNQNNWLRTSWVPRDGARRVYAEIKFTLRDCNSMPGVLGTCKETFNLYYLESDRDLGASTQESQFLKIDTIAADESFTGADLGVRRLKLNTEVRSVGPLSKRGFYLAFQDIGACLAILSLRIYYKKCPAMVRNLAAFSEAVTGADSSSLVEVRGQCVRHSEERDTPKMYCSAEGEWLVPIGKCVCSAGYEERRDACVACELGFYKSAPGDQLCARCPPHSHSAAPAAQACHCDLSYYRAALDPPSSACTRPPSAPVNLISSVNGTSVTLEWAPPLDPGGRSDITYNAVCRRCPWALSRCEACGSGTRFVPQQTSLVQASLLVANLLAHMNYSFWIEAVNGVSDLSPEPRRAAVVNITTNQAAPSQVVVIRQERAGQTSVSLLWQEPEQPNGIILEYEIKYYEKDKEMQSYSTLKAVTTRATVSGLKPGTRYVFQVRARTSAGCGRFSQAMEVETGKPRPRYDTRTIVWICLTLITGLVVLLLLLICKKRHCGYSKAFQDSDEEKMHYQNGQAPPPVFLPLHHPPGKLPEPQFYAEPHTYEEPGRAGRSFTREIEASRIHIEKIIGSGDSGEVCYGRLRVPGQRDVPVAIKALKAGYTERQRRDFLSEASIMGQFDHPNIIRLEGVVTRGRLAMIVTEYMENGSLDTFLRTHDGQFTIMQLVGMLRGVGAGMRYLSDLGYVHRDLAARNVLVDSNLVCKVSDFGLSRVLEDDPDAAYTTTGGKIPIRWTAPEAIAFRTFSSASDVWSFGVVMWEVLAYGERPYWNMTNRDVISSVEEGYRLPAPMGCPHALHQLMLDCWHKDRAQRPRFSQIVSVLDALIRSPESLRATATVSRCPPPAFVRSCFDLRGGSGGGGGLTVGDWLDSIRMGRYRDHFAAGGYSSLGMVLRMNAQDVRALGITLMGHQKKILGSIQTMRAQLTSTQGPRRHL

Fgr(h) = Fgr(h) (Homo sapiens, UniProt P09769)
Fgr(h), sequence (P09769 whole entry): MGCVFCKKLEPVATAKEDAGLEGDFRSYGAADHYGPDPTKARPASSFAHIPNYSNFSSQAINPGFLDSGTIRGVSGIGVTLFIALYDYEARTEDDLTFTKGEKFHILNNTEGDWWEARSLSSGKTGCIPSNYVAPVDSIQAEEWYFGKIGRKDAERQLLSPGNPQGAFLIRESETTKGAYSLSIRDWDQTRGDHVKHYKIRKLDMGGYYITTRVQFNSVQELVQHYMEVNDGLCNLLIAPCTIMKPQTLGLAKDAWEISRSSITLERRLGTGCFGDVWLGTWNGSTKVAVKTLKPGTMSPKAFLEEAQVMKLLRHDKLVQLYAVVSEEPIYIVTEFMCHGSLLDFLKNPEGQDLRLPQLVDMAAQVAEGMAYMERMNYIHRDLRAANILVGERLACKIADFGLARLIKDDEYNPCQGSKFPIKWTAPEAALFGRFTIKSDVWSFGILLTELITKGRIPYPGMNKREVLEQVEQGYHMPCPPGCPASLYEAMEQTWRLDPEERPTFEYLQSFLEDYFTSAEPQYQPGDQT

BTK(h) = BTK(h) (Homo sapiens, UniProt Q06187)
BTK(h), sequence (Q06187 whole entry): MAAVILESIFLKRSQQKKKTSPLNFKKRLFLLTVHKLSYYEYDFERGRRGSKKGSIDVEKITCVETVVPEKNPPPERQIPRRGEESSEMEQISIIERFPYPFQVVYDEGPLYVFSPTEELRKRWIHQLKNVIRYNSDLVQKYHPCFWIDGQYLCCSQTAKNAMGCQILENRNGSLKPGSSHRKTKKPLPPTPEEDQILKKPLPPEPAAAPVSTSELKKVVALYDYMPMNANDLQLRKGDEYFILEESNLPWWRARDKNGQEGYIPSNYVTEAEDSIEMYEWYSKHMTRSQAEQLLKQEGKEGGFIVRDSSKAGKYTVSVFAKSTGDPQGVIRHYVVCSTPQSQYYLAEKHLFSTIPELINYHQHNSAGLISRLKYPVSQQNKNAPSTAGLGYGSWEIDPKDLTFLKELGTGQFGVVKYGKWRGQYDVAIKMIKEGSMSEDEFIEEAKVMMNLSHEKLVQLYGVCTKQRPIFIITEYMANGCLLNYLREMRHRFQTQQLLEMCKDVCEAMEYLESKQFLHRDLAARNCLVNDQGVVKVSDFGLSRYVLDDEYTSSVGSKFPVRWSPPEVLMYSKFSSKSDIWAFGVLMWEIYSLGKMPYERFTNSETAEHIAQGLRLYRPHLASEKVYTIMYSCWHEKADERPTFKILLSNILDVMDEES

CK1γ2(h) = CK1γ2(h) (Homo sapiens, UniProt P78368)
CK1γ2(h), sequence (P78368 whole entry): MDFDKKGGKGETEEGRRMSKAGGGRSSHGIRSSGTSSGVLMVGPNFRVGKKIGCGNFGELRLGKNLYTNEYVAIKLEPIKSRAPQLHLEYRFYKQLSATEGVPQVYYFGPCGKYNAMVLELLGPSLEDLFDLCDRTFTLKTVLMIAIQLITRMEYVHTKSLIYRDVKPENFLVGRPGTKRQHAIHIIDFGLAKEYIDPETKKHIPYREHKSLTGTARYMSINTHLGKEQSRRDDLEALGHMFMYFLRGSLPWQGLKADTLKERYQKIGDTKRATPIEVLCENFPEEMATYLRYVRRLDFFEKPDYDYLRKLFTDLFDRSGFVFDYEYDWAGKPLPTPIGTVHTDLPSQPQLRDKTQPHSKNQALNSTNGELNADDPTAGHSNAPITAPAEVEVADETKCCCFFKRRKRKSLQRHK

Hck(h) = Hck(h) (Homo sapiens, UniProt P08631)
Hck(h), sequence (P08631 whole entry): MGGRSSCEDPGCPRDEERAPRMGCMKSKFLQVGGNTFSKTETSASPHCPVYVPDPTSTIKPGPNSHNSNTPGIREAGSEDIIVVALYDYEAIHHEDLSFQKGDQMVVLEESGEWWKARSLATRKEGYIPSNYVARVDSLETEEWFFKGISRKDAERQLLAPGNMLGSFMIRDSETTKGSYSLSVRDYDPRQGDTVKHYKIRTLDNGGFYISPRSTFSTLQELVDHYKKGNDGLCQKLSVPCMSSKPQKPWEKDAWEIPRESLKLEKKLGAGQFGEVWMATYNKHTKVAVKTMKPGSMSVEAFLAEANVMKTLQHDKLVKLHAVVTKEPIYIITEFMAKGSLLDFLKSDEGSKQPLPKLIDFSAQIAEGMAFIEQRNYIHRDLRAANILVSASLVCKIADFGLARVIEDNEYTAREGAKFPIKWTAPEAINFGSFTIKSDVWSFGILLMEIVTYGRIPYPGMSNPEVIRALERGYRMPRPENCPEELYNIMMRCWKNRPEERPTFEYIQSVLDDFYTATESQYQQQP

ROCK-I(h), sequence (Q13464 whole entry): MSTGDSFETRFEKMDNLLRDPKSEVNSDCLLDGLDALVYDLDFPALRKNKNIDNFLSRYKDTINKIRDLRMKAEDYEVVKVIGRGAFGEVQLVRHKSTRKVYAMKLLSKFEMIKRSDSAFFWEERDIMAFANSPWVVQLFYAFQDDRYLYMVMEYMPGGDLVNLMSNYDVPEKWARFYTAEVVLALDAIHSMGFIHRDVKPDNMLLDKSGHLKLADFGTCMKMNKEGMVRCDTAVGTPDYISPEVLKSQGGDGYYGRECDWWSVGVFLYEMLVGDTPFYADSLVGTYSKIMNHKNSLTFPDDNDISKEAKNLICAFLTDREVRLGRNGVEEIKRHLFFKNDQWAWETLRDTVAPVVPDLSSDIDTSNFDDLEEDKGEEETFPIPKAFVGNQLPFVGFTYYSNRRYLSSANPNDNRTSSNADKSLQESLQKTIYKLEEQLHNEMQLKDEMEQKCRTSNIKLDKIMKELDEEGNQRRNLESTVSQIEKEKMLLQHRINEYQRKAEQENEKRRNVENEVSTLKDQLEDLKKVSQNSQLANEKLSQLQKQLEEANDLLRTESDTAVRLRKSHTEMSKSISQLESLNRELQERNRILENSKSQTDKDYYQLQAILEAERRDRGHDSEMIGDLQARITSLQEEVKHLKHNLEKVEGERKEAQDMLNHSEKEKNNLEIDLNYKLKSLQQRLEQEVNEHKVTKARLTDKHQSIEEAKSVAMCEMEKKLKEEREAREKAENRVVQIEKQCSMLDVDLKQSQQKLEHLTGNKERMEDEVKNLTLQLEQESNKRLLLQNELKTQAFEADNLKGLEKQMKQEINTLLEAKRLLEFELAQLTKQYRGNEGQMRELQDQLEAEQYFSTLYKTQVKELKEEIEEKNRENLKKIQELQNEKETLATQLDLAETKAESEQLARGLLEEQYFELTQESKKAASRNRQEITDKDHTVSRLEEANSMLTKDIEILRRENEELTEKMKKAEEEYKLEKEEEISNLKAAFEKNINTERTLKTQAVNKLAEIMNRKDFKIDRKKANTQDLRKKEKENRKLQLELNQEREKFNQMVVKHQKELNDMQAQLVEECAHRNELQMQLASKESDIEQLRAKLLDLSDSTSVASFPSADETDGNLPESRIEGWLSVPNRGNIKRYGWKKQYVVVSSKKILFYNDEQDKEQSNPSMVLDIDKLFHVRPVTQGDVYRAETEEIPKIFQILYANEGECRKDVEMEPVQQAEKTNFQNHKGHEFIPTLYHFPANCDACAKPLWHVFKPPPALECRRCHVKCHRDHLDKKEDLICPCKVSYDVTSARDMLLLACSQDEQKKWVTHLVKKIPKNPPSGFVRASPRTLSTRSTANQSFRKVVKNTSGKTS
CK1δ(h), sequence (P48730 whole entry): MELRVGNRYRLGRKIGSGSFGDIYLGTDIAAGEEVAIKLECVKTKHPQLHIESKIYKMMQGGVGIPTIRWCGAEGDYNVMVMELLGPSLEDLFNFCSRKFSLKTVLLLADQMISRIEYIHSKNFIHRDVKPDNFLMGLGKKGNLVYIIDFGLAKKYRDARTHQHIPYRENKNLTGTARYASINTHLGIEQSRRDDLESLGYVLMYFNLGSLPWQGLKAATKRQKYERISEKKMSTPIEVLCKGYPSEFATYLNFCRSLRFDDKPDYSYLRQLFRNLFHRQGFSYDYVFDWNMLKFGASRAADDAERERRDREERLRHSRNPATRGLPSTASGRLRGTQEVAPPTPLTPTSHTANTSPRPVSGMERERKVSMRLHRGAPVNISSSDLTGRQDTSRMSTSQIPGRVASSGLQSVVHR
MAPKAP-K2(h), sequence (P49137 whole entry): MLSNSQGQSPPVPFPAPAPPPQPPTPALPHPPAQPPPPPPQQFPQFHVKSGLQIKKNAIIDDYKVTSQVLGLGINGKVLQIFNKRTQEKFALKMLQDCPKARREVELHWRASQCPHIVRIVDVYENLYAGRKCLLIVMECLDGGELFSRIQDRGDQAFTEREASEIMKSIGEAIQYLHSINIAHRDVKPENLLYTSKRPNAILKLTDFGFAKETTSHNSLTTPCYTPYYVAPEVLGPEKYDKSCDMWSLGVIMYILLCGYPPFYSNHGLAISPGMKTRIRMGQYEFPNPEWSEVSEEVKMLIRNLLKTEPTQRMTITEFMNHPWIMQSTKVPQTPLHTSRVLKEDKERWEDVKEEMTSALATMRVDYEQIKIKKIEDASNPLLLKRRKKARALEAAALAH
CaMKIIγ(h), sequence (Q13555 whole entry): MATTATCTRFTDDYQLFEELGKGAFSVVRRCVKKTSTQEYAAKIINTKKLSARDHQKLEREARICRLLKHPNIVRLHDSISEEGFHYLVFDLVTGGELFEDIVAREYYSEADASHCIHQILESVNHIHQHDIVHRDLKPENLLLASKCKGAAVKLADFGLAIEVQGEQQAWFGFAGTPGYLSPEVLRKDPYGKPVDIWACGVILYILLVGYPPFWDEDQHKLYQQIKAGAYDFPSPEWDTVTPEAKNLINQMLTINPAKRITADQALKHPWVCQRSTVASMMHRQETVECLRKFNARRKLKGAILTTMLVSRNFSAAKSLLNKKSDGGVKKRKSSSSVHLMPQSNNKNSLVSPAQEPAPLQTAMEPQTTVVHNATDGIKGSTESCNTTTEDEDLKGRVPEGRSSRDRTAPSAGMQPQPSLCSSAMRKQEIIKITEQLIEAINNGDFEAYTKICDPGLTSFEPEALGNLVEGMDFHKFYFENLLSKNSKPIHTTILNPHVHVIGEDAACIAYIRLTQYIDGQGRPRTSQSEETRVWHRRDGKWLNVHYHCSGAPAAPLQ

CC(C)CCC(=O)[C@]1(O)C(O)=C(C(=O)C(C)C)C(=O)[C@H]1CCC(C)C [TH2, tetrahydroiso-cohumulone]
kinase inhibition (MAPKAP-K2(h); 1 μg/ml): 116% of control | kinase inhibition (MAPKAP-K2(h); 5 μg/ml): 104% of control | kinase inhibition (MAPKAP-K2(h); 25 μg/ml): 104% of control | kinase inhibition (MAPKAP-K2(h); 50 μg/ml): 74% of control | kinase inhibition (MAPKAP-K2(h); 100 μg/ml): 73% of control | kinase inhibition (ROCK-I(h); 1 μg/ml): 110% of control | kinase inhibition (ROCK-I(h); 5 μg/ml): 111% of control | kinase inhibition (ROCK-I(h); 25 μg/ml): 110% of control | kinase inhibition (ROCK-I(h); 50 μg/ml): 100% of control | kinase inhibition (ROCK-I(h); 100 μg/ml): 88% of control | kinase inhibition (CK1δ(h); 1 μg/ml): 105% of control | kinase inhibition (CK1δ(h); 5 μg/ml): 112% of control | kinase inhibition (CK1δ(h); 25 μg/ml): 108% of control | kinase inhibition (CK1δ(h); 50 μg/ml): 80% of control | kinase inhibition (CK1δ(h); 100 μg/ml): 53% of control | kinase inhibition (CaMKIIγ(h); 1 μg/ml): 109% of control | kinase inhibition (CaMKIIγ(h); 5 μg/ml): 109% of control | kinase inhibition (CaMKIIγ(h); 25 μg/ml): 131% of control | kinase inhibition (CaMKIIγ(h); 50 μg/ml): 108% of control | kinase inhibition (CaMKIIγ(h); 100 μg/ml): 101% of control | kinase inhibition (MKK7β(h); 1 μg/ml): 100% of control | kinase inhibition (MKK7β(h); 5 μg/ml): 110% of control | kinase inhibition (MKK7β(h); 25 μg/ml): 111% of control | kinase inhibition (MKK7β(h); 50 μg/ml): 82% of control | kinase inhibition (MKK7β(h); 100 μg/ml): 72% of control | kinase inhibition (CK1(y); 25 μg/ml): 110% of control | kinase inhibition (CK1(y); 50 μg/ml): 110% of control | kinase inhibition (CK1(y); 100 μg/ml): 100% of control | kinase inhibition (EphA8(h); 1 μg/ml): 118% of control | kinase inhibition (EphA8(h); 5 μg/ml): 99% of control | kinase inhibition (EphA8(h); 25 μg/ml): 112% of control | kinase inhibition (EphA8(h); 50 μg/ml): 101% of control | kinase inhibition (EphA8(h); 100 μg/ml): 100% of control | kinase inhibition (Fgr(h); 1 μg/ml): 95% of control | kinase inhibition (Fgr(h); 5 μg/ml): 96% of control | kinase inhibition (Fgr(h); 25 μg/ml): 112% of control | kinase inhibition (Fgr(h); 50 μg/ml): 106% of control | kinase inhibition (Fgr(h); 100 μg/ml): 86% of control | kinase inhibition (BTK(h); 1 μg/ml): 98% of control | kinase inhibition (BTK(h); 5 μg/ml): 96% of control | kinase inhibition (BTK(h); 25 μg/ml): 67% of control | kinase inhibition (BTK(h); 50 μg/ml): 59% of control | kinase inhibition (BTK(h); 100 μg/ml): 47% of control | kinase inhibition (CK1γ2(h); 1 μg/ml): 103% of control | kinase inhibition (CK1γ2(h); 5 μg/ml): 96% of control | kinase inhibition (CK1γ2(h); 25 μg/ml): 79% of control | kinase inhibition (CK1γ2(h); 50 μg/ml): 54% of control | kinase inhibition (CK1γ2(h); 100 μg/ml): 49% of control | kinase inhibition (Hck(h); 1 μg/ml): 103% of control | kinase inhibition (Hck(h); 5 μg/ml): 88% of control | kinase inhibition (Hck(h); 25 μg/ml): 76% of control | kinase inhibition (Hck(h); 50 μg/ml): 62% of control | kinase inhibition (Hck(h); 100 μg/ml): 42% of control

— patent US20100137449A1, “SUBSTITUTED 1,3-CYCLOPENTADIONE MULTI-TARGET PROTEIN KINASE MODULATORS OF CANCER, ANGIOGENESIS AND THE INFLAMMATORY PATHWAYS ASSOCIATED THEREWITH” (METAPROTEOMICS, LLC, priority 2007, published 2010)
